{"source": "patent US7618967B2", "about": "“Indane compounds” (H. Lundbeck A/S, priority 2006, dated 2009)"}
{"molecular_target": "NAT Noradrenergic Transporter (Rattus norvegicus, UniProt Q9WTR4)", "sequence (Q9WTR4 6-550 limits assumed)": "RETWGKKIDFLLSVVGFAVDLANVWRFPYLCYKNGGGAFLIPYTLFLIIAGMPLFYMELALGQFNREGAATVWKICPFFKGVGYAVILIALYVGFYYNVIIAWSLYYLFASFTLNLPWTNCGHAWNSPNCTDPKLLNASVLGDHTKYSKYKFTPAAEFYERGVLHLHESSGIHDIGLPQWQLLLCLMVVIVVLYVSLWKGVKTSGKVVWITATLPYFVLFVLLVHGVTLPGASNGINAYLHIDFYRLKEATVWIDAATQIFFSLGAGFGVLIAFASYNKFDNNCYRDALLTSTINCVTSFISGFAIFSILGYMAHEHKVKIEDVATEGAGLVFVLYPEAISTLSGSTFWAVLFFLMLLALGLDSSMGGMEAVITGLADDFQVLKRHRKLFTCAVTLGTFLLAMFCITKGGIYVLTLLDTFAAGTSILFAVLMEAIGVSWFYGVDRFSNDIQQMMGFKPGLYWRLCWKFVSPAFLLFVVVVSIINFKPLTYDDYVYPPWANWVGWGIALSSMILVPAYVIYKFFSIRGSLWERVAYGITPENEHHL", "assay": "Measurements of [3H]noradrenaline uptake into rat cortical synaptosomes", "format": "biochemical", "description": "Transporter Inhibition Assays\nMeasurements of [^3H]Noradrenaline Uptake into Rat Cortical Synaptosomes\nThe homogenate is centrifuged at 1000×g for 10 min at 4° C. The pellet is discarded and the supernatant is centrifuged at 40.000×g for 20 min. […] Pellet is suspended in 140 volumes of assaybuffer. Tissue is mixed with test compounds and after 10 min pre-incubation, 10 nM [^3H]-noradrenaline is added to a final volume of 0.2 ml and the mixture is incubated for 15 min at 37° C. After 15 min incubation, samples are filtered directly on Unifilter GF/C glass fiber filters (soaked for 30 min in 0.1% polyethylenimine) under vacuum and immediately washed with 1×0.2 mL assay buffer.\nNon-specific uptake is determined using talsupram (10 μM final concentration). Duloxetine is included as reference in all experiments as dose-response curve.", "units": {"IC50": "nM"}}
{"smiles": "CN[C@@H]1C[C@@H](c2c[nH]c3ccc(Cl)cc23)c2ccccc21", "note": "[Formula VIII]", "IC50": "0.1 to 200"}
{"smiles": "CN[C@@H]1C[C@@H](c2c[nH]c3ccccc23)c2ccccc21", "note": "[Formula IX]", "IC50": "0.1 to 200"}
{"smiles": "CN[C@@H]1C[C@@H](c2c[nH]c3cc(OC)ccc23)c2ccccc21", "note": "[Formula X]", "IC50": "0.1 to 200"}
